Reference: PubChem BioAssay AID1645868 (Buhrlage Lab, Dana-Farber Cancer Institute and Novartis …, 2021)
Calls of active or inactive are those of the source.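 The calls were made as follows: active = maximal percent inhibition of the deubiquitinase OTUD3 of at least 30% across the tested doses; inactive = the rest.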

Each compound was assayed against OTU domain-containing protein 3 (Homo sapiens) (UniProt Q5T2D3) (assay: Validation of screening hits, potency titration, in vitro enzymatic, OTU domain-containing protein 3 DUB inhibitors (AID 1645868)). Conditions: purified OTUD3, ubiquitin-rhodamine cleavage fluorescence, 2 h.
Chain of OTU domain-containing protein 3 (Homo sapiens) (Q5T2D3 whole entry, looked up, the tested form may be a part): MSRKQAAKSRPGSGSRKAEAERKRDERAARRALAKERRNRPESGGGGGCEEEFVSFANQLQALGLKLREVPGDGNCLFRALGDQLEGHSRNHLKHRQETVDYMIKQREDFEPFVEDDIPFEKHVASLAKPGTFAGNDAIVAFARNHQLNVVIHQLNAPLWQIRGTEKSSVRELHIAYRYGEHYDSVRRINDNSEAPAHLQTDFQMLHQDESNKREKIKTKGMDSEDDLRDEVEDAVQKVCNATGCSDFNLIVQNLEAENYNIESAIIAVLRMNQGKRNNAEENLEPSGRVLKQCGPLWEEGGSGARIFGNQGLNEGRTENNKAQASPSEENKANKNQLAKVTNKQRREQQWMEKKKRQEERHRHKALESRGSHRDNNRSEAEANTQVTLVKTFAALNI

| SMILES | IC50 |
| --- | --- |
| COc1cccc(NC(=O)Cn2c(COc3ccccc3)nc3ccccc32)c1 | > 50 µM (inactive) |
| FC(F)(F)c1ccccc1CCN1CCc2nc3ccc(Cl)cc3cc2C1 | > 50 µM (inactive) |
| COc1cc(C(=O)NC(Cc2ccccc2)c2nc3ccccc3[nH]2)cc(OC)c1OC (centres undefined) | 2.99 µM |
| Cc1ccc(-c2c(C(=O)Nc3ccc(S(N)(=O)=O)cc3)oc(=O)c3ccccc23)cc1 | 35 µM |
| O=C(NCc1ccccc1)c1ccc2c(=O)n(-c3ccccc3)c(=O)[nH]c2c1 | 38.1 µM |
| O=C(Nc1cc(F)ccc1F)c1ccn(COc2ccc(F)c(Cl)c2)n1 | > 50 µM (inactive) |
| COCCCNC(=O)c1ccc(Cn2c(=O)c3ccccc3n(CC(=O)NC3CCCCC3)c2=O)cc1 | 32.3 µM |
| CN(C)CCc1cc2c(c3c1ccc1ccccc13)OCO2 | > 50 µM (inactive) |
| O=C(Cn1c(=O)n(Cc2ccc(F)cc2)c(=O)c2ncccc21)Nc1ccccc1 | > 50 µM (inactive) |
| COc1ccc(-c2cc3nc([C@H](C)NC(=O)Cc4ccccc4C)nn3cn2)cc1 | 6.66 µM |
| CCc1ccccc1NC(=O)c1cc(-c2ccccn2)n[nH]1 | > 50 µM (inactive) |
| CC(=O)c1cccc(NC(=O)c2ccc(N3CCCCC3)nn2)c1 | > 50 µM (inactive) |
| Cc1cccc(N2CCN(C(=O)c3nnn(-c4ccc(F)cc4)n3)CC2)c1 | > 50 µM (inactive) |
| CC(=O)Nc1cccc(NC(=O)COc2cccc3ccc(N4CCCC4)nc23)c1 | > 50 µM (inactive) |
| Cc1ccc(-n2c(=O)[nH]c3c(C(N)=O)nc(-c4cccnc4)nc32)cc1 | 30.8 µM |
| COc1cc(C)c2c(=O)c3c(oc2c1)C(=O)c1c(O)c(OC)cc(O)c1C3=O | 2.76 µM |
| CC(=O)c1ccc(NC(=O)c2nc3ccccc3nc2N2CCOCC2)cc1 | > 50 µM (inactive) |
| NC(=O)CCC(=O)N[C@H]1C[C@H]2CN(Cc3ccccc3)c3ccccc3CN2C1 | > 50 µM (inactive) |
| Cc1ccc(C)c(-n2c(C)cc(/C=C3/C(=N)N4C(c5ccc(F)cc5)=CSC4=NC3=O)c2C)c1 | > 50 µM (inactive) |
| O=C(Cn1cc(C(=O)C2CC2)c2ccccc21)NCc1ccc2c(c1)OCO2 | 31.2 µM |

| SMILES | IC50 |
| --- | --- |
| COc1ccc(-n2c(SCC(=O)c3ccc(F)cc3)nnc2-c2cccnc2)cc1 | 26.8 µM |
| COCCn1ccc2nc(C)c(C(=O)Nc3ccc4c(c3)OCCO4)cc2c1=O | > 50 µM (inactive) |
| CCOC(=O)c1cc2c(ccn2C)n1Cc1cccc2ccccc12 | > 50 µM (inactive) |
| COc1ccccc1CNC(=O)c1ccccc1OCc1ccccc1Cl | > 50 µM (inactive) |
| COc1ccccc1CC(=O)N(C)C(c1ccccc1)c1ccccc1 | > 50 µM (inactive) |
| Oc1sc(C=Nc2cc(Cl)ccc2Cl)c2ccccc12 | > 50 µM (inactive) |
| CCn1ccc2c(cc(C(=O)Nc3cccc(OC)c3)n2C)c1=O | > 50 µM (inactive) |
| Nc1nc(OCc2ccccc2)c2[nH]c(/C=C/c3cccs3)nc2n1 | 29 µM |
| Fc1ccc(Cc2nc(-c3ccc4nncn4c3)no2)cc1 | > 50 µM (inactive) |
| Cc1cccc(NC(=O)c2nc(N3CCSCC3)c3cnn(C)c3n2)c1 | > 50 µM (inactive) |
| N#Cc1c(Cl)cccc1Oc1ccc(S(=O)(=O)N2CCC(O)CC2)cc1 | 21.3 µM |
| Cc1nn(Cc2ccccc2)c(C)c1C(=O)NC1CCCc2ccccc21 (centres undefined) | > 50 µM (inactive) |
| Cc1cccc(C(=O)N2CCc3cc(-c4nc(NC(=O)CN5CCc6ccccc6C5)sc4C)ccc32)c1 | > 50 µM (inactive) |
| Cc1cc(O)c2c3c(c(O)c4c(c13)O[C@@H](C)C4(C)C)C(=O)C2=O | 31.9 µM |
| Cc1nc2cc(NC(=O)C3CN(C(=O)c4cnccn4)C3)ccc2s1 | > 50 µM (inactive) |
| COc1ccc(C2C(C(=O)Nc3ccccc3OC)=C(C)Nc3nnnn32)cc1Br (centres undefined) | > 50 µM (inactive) |
| CC(C(=O)Nc1ccccc1)n1cnc2nc(N3CCCCC3)ncc2c1=O (centres undefined) | > 50 µM (inactive) |
| Fc1cccc(-n2cc(-c3noc(-c4ccc[nH]4)n3)nn2)c1 | > 50 µM (inactive) |
| Cc1ccccc1Cn1cc(SCC(=O)Nc2ccc3c(c2)OCCO3)c2ccccc21 | > 50 µM (inactive) |
